For assay [1], the target named is T1, Bcl-2-related protein A1 (Mus musculus, UniProt Q07440).
T1 sequence (Q07440 whole entry): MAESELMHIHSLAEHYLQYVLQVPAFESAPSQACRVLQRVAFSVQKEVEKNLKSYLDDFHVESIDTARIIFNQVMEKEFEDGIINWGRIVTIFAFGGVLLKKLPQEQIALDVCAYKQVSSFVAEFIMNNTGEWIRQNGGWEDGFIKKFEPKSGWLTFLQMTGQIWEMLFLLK
The experiment in a line: small-molecule antagonists of Bfl-1/BH3 interaction – biochemical, TR-FRET, mouse Bfl-1, confirmation (AID 621).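 Note: TR-FRET binding of GST-Bfl-1 to FITC-labelled Bid peptide via terbium antibody.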

The target in assay [2] is T1, Bcl-2-related protein A1. The experiment in a line: Bfl-1 binding inhibitors, SAR follow-up, biochemical, fluorescence polarization (AID 1070). For orientation: Fluorescence polarisation rises when a labelled molecule tumbles more slowly, as on binding a larger partner.
Assay [3] concerns the target T2, RNA-binding protein pos-1 (Caenorhabditis elegans, UniProt G5EF15).
T2 sequence (G5EF15 whole entry): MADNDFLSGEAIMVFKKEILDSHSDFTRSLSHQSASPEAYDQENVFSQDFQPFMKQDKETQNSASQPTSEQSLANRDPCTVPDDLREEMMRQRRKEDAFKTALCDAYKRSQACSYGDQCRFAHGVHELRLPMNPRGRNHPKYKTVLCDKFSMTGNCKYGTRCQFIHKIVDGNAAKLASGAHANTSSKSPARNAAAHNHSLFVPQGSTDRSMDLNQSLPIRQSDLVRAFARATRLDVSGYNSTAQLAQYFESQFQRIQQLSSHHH
In words: disruptors of C. elegans POS-1 RNA interaction – biochemical, fluorescence polarization, dose response (AID 1964).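 Note: purified POS-1 fused to maltose binding protein made in E. coli; potency of compounds blocking POS-1 binding to fluorescent RNA.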

The target of assay [4] is Peroxisome proliferator-activated receptor gamma/Nuclear receptor coactivator 1 (Homo sapiens, UniProt P37231). In words: TR-FRET dose response biochemical High Throughput Screening assay for agonists of the steroid receptor coactivator 1 (SRC-1) recruitment by the peroxisome proliferator-activated receptor gamma (PPAR gamma): non-selective agonists. [Related pubchem assays (depositor defined):AID1300, AID1808, AID504735, AID631]. The format is protein assay. For orientation: In TR-FRET formats the signal depends on donor and acceptor labels being close together.

Assay [5] addresses Peroxisome proliferator-activated receptor gamma/Nuclear receptor coactivator 3 (Homo sapiens, UniProt P37231). In words: TR-FRET dose response biochemical High Throughput Screening assay for agonists of the steroid receptor coactivator 3 (SRC-3) recruitment by the peroxisome proliferator-activated receptor gamma (PPAR gamma): non-selective agonists. [Related pubchem assays: 1301 (Confirmation screen.), 1048 (Primary screen.)]. The format is functional.

Assay [6] addresses T3, Zinc finger protein mex-5 (Caenorhabditis elegans, UniProt Q9XUB2).
T3 sequence (Q9XUB2 whole entry): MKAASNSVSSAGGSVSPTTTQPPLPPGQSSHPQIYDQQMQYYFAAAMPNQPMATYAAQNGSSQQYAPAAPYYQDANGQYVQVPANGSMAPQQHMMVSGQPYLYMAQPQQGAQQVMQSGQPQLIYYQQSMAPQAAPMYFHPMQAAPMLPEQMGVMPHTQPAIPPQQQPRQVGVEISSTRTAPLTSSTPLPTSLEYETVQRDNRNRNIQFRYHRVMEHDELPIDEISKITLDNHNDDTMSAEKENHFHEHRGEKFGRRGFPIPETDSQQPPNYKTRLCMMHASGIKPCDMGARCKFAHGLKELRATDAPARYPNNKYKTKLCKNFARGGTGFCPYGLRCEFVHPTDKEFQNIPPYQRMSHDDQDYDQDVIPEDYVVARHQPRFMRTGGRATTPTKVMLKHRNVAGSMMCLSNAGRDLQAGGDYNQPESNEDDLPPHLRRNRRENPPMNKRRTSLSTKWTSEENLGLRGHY
The experiment in a line: potency of MEX-5 RNA-binding blockers – biochemical, C. elegans, fluorescence polarization, dose response (AID 1960).

The next assay deals with 14-3-3 protein gamma (Homo sapiens, UniProt P61981). In words: modulators of 14-3-3 gamma client binding – dose response (AID 711). The assay is classed as functional.
For assay [7], the target named is Peroxisome proliferator-activated receptor gamma/Nuclear receptor coactivator 2 (Homo sapiens, UniProt P37231). The experiment in a line: TR-FRET dose response biochemical High Throughput Screening assay for agonists of the steroid receptor coactivator 2 (SRC-2) recruitment by the peroxisome proliferator-activated receptor gamma (PPAR gamma): non-selective agonists. [Related pubchem assays: 1297, 1032 ]. The assay is classed as functional.

Assay [8] addresses Mitogen-activated protein kinase 10 (Homo sapiens, UniProt P53779). The experiment in a line: Dose response biochemical screening assay for inhibitors of c-Jun N-Terminal Kinase 3 (JNK3). [Related pubchem assays: 746 ].
The next assay deals with HeLa. In words: viability loss in HeLa cells – cell-based, 24 h, cherry-picked samples, cytotoxicity control, dose response (AID 504726).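 Note: potency for cytotoxicity as loss of luminescence signal.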 As to conditions: Homo sapiens. The format is functional.
In the next assay the target is T4, ORF 73 (Human herpesvirus 8, UniProt O40947).
T4 sequence (O40947 whole entry): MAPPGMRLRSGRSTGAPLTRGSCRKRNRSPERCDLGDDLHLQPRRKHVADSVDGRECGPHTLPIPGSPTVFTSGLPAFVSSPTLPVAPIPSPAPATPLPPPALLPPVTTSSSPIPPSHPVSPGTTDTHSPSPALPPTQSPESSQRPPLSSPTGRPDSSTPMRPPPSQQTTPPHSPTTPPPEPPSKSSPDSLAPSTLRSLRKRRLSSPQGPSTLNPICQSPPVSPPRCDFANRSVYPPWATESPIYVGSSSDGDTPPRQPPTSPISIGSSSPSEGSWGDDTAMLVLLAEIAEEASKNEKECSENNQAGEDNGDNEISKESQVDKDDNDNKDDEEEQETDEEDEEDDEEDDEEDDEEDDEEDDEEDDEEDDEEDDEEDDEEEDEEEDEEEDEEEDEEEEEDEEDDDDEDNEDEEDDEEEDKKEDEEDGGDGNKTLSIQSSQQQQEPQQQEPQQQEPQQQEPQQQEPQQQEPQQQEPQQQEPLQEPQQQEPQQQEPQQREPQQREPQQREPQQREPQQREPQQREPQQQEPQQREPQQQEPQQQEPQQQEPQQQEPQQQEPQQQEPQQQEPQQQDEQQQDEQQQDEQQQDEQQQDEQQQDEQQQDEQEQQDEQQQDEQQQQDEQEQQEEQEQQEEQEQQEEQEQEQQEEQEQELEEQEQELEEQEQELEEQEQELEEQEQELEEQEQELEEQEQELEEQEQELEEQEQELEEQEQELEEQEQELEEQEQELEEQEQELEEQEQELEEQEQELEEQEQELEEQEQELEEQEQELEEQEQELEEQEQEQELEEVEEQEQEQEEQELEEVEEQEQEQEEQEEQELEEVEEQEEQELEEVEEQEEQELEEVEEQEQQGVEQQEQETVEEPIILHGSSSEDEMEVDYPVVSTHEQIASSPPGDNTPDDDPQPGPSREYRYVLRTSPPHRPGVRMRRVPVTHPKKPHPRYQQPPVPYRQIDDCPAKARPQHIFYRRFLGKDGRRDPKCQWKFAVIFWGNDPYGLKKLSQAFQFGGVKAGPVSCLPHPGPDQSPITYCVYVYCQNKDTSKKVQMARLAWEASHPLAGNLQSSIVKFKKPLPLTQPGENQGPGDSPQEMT
In words: KSHV LANA DNA-binding disruption – biochemical, fluorescence polarization, cherry-picked samples, dose response (AID 504725).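 Note: fluorescence polarization of a labeled DNA duplex reporting LANA DNA binding; potency is for inhibitors that block LANA binding to the DNA.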 Set-up: species or system Human gammaherpesvirus 8.

In assay [9] the target is UDP-galactopyranose mutase (Mycobacterium tuberculosis, UniProt P9WIQ1). The experiment in a line: Inhibitors of Mycobacterium tuberculosis UDP-galactopyranose mutase (UGM) enzyme Measured in Biochemical System Using Plate Reader - 2105-02_Inhibitor_Dose_CherryPick_Activity. [Related pubchem assays (depositor defined):AID504439].
The target of a further assay is Keap1/Nrf2 (Homo sapiens, UniProt Q14145). The experiment in a line: disruptors of Keap1 binding to Nrf2 peptide – biochemical, fluorescence polarization, cherry-picked samples, dose response (AID 588683).
Assay [10] concerns the target Diphosphomevalonate decarboxylase (Streptococcus pneumoniae serotype 2 (strain D39 / NCTC 7466), UniProt Q9FD53). The experiment in a line: diphosphomevalonate decarboxylase inhibitor confirmation – biochemical, cuvette format, coupled NADH fluorescence (AID 1028). The assay is classed as functional.

We go through 3 molecules from ChEMBL document CHEMBL1201862, “PubChem BioAssay data set” (2004).

Calls of active or inactive are those of the source.

UDP-galactopyranose mutase, sequence (P9WIQ1 whole entry): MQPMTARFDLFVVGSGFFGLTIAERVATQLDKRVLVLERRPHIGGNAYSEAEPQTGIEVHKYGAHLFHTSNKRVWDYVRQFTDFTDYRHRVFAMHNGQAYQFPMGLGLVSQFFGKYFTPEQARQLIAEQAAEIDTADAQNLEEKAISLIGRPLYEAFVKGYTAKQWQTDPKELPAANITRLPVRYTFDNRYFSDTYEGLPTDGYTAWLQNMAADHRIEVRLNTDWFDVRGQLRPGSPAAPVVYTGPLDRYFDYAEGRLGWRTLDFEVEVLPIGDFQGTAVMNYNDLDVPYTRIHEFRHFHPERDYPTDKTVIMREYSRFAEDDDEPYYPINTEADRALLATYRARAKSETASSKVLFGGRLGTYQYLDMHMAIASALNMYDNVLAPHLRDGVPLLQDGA
Peroxisome proliferator-activated receptor gamma/Nuclear receptor coactivator 1, sequence (P37231 whole entry): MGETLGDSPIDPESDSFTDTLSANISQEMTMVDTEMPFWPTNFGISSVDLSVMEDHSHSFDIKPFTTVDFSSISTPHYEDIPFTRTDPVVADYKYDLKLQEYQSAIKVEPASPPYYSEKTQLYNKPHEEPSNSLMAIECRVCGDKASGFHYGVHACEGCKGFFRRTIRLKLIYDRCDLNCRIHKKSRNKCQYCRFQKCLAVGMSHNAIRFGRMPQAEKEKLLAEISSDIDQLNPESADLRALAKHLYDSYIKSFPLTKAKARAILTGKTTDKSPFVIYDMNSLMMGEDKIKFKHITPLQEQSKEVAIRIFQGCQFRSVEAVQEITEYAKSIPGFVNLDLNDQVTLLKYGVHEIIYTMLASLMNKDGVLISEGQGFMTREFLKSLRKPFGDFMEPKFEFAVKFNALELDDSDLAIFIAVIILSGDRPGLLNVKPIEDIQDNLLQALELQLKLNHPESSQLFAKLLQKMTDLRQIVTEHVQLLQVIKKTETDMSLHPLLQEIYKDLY
Peroxisome proliferator-activated receptor gamma/Nuclear receptor coactivator 1, sequence (Q15788 whole entry, further chain): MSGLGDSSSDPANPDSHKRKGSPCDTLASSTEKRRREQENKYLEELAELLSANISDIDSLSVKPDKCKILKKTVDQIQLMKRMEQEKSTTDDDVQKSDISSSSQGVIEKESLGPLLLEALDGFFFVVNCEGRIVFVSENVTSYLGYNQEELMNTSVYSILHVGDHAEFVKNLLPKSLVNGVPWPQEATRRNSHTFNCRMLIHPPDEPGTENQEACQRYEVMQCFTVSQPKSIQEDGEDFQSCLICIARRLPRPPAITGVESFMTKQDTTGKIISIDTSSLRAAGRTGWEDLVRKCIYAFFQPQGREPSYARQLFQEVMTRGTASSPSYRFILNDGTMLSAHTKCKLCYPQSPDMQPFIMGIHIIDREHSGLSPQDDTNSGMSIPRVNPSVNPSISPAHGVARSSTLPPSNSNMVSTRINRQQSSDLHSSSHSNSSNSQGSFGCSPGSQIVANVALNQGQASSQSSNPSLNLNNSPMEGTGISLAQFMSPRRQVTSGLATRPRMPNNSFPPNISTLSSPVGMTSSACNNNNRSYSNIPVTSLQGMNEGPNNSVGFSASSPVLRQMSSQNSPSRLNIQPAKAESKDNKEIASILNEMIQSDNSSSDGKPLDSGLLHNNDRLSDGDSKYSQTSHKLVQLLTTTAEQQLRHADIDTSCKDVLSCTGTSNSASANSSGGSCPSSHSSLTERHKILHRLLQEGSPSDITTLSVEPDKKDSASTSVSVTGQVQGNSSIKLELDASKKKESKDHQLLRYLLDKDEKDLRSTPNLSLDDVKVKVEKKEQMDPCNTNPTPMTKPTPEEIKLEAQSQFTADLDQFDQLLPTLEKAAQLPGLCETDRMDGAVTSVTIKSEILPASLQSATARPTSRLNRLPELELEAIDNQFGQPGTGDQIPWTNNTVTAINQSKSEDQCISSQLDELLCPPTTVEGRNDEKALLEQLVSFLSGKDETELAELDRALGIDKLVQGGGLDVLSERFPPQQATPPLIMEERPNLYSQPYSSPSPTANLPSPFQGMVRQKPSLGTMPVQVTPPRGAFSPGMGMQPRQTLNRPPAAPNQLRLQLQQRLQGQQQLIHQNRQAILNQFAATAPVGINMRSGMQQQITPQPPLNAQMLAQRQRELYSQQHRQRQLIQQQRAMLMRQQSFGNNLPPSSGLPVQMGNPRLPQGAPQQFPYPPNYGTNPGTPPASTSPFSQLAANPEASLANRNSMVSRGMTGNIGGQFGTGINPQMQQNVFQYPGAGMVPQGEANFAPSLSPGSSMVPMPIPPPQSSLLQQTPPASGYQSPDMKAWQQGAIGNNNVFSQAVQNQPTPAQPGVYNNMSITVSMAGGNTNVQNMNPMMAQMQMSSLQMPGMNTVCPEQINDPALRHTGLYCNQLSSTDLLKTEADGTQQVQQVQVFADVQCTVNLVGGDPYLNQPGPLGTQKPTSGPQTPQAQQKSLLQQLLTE
Peroxisome proliferator-activated receptor gamma/Nuclear receptor coactivator 2, sequence (P37231 whole entry): as the sequence (P37231 whole entry) above
Peroxisome proliferator-activated receptor gamma/Nuclear receptor coactivator 2, sequence (Q15596 whole entry, further chain): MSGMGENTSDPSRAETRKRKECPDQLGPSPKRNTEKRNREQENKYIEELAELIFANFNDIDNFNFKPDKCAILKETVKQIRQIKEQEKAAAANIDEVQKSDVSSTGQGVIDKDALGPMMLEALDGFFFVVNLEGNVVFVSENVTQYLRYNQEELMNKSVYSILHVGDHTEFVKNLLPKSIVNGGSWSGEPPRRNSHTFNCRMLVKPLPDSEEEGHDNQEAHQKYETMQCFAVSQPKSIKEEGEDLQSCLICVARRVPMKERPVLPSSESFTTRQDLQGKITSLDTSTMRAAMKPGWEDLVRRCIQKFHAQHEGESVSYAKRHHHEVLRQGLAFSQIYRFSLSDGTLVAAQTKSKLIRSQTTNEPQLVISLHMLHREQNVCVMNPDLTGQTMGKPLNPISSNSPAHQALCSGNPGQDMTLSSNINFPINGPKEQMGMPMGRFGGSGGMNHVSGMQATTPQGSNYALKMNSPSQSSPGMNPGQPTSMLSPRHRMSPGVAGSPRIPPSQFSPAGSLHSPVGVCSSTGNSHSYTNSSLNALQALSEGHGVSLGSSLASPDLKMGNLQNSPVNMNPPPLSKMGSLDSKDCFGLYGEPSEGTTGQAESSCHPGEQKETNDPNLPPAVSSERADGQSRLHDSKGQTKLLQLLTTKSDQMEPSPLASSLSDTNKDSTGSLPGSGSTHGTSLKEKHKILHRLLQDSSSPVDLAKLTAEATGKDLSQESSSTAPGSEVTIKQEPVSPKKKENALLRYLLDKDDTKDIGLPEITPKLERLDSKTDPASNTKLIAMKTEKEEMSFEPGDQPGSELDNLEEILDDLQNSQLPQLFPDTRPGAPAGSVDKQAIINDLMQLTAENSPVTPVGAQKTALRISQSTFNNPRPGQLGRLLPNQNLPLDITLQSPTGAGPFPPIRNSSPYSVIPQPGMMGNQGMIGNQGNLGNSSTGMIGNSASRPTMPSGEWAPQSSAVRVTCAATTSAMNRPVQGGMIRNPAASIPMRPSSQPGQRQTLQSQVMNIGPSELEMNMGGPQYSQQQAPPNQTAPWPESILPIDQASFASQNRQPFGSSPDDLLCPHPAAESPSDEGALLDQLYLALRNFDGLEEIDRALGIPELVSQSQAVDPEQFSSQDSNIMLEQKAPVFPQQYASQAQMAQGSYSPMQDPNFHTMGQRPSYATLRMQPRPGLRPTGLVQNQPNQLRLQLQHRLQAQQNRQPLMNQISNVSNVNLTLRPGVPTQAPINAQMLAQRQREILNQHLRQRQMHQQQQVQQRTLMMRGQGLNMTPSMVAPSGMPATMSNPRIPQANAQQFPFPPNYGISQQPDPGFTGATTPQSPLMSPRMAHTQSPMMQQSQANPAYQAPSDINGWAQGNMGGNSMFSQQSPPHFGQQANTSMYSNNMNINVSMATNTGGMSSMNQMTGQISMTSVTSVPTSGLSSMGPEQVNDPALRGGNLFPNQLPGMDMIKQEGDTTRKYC
Mitogen-activated protein kinase 10, sequence (P53779 whole entry): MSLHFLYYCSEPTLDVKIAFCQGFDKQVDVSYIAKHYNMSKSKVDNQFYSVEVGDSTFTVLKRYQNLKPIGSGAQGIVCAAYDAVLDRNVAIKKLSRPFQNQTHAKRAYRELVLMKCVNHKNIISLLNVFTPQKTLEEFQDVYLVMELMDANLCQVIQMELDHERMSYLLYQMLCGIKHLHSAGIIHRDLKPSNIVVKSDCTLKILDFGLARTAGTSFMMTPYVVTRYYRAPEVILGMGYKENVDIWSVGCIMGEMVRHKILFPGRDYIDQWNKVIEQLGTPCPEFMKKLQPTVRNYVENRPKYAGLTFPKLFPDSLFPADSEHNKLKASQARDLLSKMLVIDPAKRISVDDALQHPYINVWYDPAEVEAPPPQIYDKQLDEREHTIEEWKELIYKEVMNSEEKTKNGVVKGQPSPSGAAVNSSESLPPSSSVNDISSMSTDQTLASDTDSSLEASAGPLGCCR
14-3-3 protein gamma, sequence (P61981 whole entry): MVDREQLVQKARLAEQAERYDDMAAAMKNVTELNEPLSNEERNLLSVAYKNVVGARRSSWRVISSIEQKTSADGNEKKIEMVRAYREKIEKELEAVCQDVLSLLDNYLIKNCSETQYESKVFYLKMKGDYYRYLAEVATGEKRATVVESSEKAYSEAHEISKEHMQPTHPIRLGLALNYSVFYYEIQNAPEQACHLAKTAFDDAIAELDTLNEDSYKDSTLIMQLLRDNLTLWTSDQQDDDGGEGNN

Turning to `COc1ccc2nc(O)c(-c3nnn(-c4ccccc4)n3)cc2c1`, the concentration for half-maximal inhibition (IC50) against Bcl-2-related protein A1 [1] and at Bcl-2-related protein A1 [2] was > 100 µM (not active) in each case.

Consider `O=C1c2ccccc2-c2onc3ccc(NCc4ccco4)c1c23`, for which the concentration giving a half-maximal response (EC50) – broadly, the concentration that produces a half-maximal response – was 0.173 µM (inconclusive) in [3]; > 79.4 µM (inactive) in assay [4]; > 79.4 µM (not active) in assay [5]; < 0.06 µM (inconclusive) in assay [6]; 24.3 µM (not active) in assay [7]. For the same molecule, the 50% inhibitory concentration (IC50) – broadly, the point on the concentration scale where inhibition reaches its midpoint – at 14-3-3 protein gamma is < 44 µM (inconclusive); in assay [8] it was 24 µM (not active). For the same molecule, the AC50 (as a rule, the concentration at which the activity in the assay is half-maximal) in the assay on HeLa is 17.1 µM (active); on ORF 73, 7.42 µM (active); in [9], 1.2 µM (active); at Keap1/Nrf2 it was 1.26 µM (active).

For the molecule `O=C(c1ccc(-n2sc3ccccc3c2=O)cc1)N1CCCCC1`, the half-maximal inhibitory concentration (IC50) in [10] was 14.3 µM (active).
